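Growth conditions: 96-well plates. Treatment: test compound, 48 hours, 5 concentrations. Analysis: linear interpolation between bracketing concentrations; unreached endpoints set to highest concentration. Here, GI50 denotes the concentration required for 50% inhibition of growth. Definition used: TGI = concentration required for complete inhibition of growth.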
Key:
Test in all cases: DTP human tumour cell line panel, 48 h
[1] = tested on: A498 renal
[2] = tested on: KM12 colon
[3] = tested on: MOLT-4 leukemia
[4] = tested on: K-562 leukemia
[5] = tested on: EKVX NSCLC
[6] = tested on: MDA-MB-231 breast
[7] = tested on: SW-620 colon
[8] = tested on: HL-60(TB) leukemia
[9] = tested on: SN12C renal
[10] = tested on: IGROV1 ovarian

With `CSc1ccc2c(c1)C(=O)c1c-2n(CCCN=[N+]=[N-])c(=O)c2cc([N+](=O)[O-])ccc12` the TGI [1] was > 22300 nM, the TGI [2] was > 100000 nM and the GI50 [3] was 371 nM. The TGI [3] was 6380 nM, the GI50 [4] was 1990 nM and the TGI [4] was > 40200 nM. For the same compound, the GI50 [5] was > 100000 nM, the TGI [5] was > 100000 nM and the GI50 [6] was > 100000 nM. The TGI [6] was > 100000 nM, the GI50 [7] was 1720 nM and the TGI [7] was > 100000 nM. For the same compound, the GI50 [8] was 1170 nM, the GI50 [9] was 1630 nM and the TGI [9] was > 100000 nM. The GI50 [10] was 8860 nM and the TGI [10] was > 100000 nM.
`COc1ccc2cc(C(=O)/C=C/c3ccccc3OC)ccc2c1` showed a GI50 [1] of 6450 nM, a TGI [1] of 30700 nM and a GI50 [2] of 1600 nM. It also gave a TGI [2] of 9510 nM, a GI50 [3] of 1260 nM and a TGI [3] of 9450 nM. The GI50 [4] was 669 nM, the GI50 [5] was 17500 nM and the TGI [5] was 58500 nM. It also gave a GI50 [6] of 2730 nM, a TGI [6] of 21700 nM and a GI50 [7] of 2810 nM. For the same compound, the TGI [7] was > 33200 nM, the GI50 [8] was 2550 nM and the TGI [8] was 8140 nM. The GI50 [9] was 1970 nM, the TGI [9] was 6820 nM and the GI50 [10] was 769 nM. For the same compound, the TGI [10] was 4060 nM.
For `Cc1cc(Cl)ccc1Nc1nc(C(F)(F)F)ccc1C(=O)N/N=C/c1c(Cl)cccc1Cl`, the GI50 [1] was 473 nM, the TGI [1] was > 22800 nM and the GI50 [2] was 254 nM. For the same compound, the TGI [2] was 1920 nM, the GI50 [3] was 157 nM and the TGI [3] was 597 nM. For the same compound, the GI50 [4] was 253 nM, the GI50 [5] was 211 nM and the TGI [5] was 2970 nM. The GI50 [6] was 249 nM, the GI50 [7] was 322 nM and the TGI [7] was > 100000 nM. For the same compound, the GI50 [8] was 229 nM, the TGI [8] was 530 nM and the GI50 [9] was 262 nM. For the same compound, the TGI [9] was > 100000 nM, the GI50 [10] was 357 nM and the TGI [10] was 6290 nM.
In the case of `COc1cccc(-c2cc(NCc3ccc4c(c3)OCO4)nc(N)n2)c1`, the GI50 [1] is reported as 33 nM, the TGI [1] is reported as 763 nM and the GI50 [2] is reported as 72 nM. It also gave a TGI [2] of 8180 nM, a GI50 [3] of 110 nM and a TGI [3] of 12800 nM. The GI50 [4] was 41 nM, the TGI [4] was > 34000 nM and the GI50 [5] was 3330 nM. For the same compound, the TGI [5] was 52300 nM, the GI50 [6] was 228 nM and the TGI [6] was 13700 nM. It also gave a GI50 [7] of 42.2 nM, a TGI [7] of 16500 nM and a GI50 [8] of 32.4 nM. The TGI [8] was 296 nM, the GI50 [9] was 103 nM and the TGI [9] was 22000 nM. For the same compound, the GI50 [10] was 143 nM and the TGI [10] was 19100 nM.
`N=c1c2c(=O)n3c(nc2nc2sc4ccc(Cl)cc4n12)-c1ccccc1Sc1ccccc1-3` gave a GI50 [1] of 371 nM, a TGI [1] of 3600 nM and a GI50 [2] of 2900 nM. For the same compound, the TGI [2] was 12400 nM, the GI50 [3] was 1770 nM and the TGI [3] was 9640 nM. For the same compound, the GI50 [4] was 1610 nM, the TGI [4] was > 100000 nM and the GI50 [5] was 1420 nM. For the same compound, the TGI [5] was 8970 nM, the GI50 [6] was 2560 nM and the TGI [6] was 16200 nM. For the same compound, the GI50 [7] was 3050 nM, the TGI [7] was 16100 nM and the GI50 [8] was 2210 nM. It also gave a TGI [8] of 6630 nM, a GI50 [9] of 2940 nM and a TGI [9] of 14000 nM. It also gave a GI50 [10] of 3810 nM and a TGI [10] of 18300 nM.
For `CNC(=S)N/N=C(/C)CCC/C(C)=N/NC(=S)NC`, the TGI [1] was > 100000 nM, the TGI [2] was > 100000 nM and the TGI [3] was 303 nM. The TGI [4] was > 100000 nM, the TGI [5] was > 100000 nM and the TGI [6] was > 100000 nM. The TGI [7] was > 100000 nM, the TGI [8] was > 100000 nM and the TGI [9] was > 100000 nM. The TGI [10] was > 100000 nM.
For `CCOC(=O)c1c2c(n3cccc(F)c13)C(=O)c1ncccc1C2=O`, the TGI [1] was 21700 nM, the GI50 [2] was 539 nM and the TGI [2] was 18900 nM. The GI50 [3] was 3060 nM, the TGI [3] was 23700 nM and the GI50 [4] was 357 nM. For the same compound, the TGI [4] was > 100000 nM, the GI50 [5] was 1070 nM and the TGI [5] was 15800 nM. The GI50 [6] was 4140 nM, the TGI [6] was 64700 nM and the GI50 [7] was 151 nM. For the same compound, the TGI [7] was 11300 nM, the GI50 [8] was 1030 nM and the TGI [8] was 3690 nM. It also gave a GI50 [9] of 457 nM, a TGI [9] of 17600 nM and a GI50 [10] of 1600 nM. For the same compound, the TGI [10] was 24900 nM.
`CCN1CCN(Cc2ccc3cc(C(=O)Nc4cc(NC(=O)c5ccc6c(c5)OCCO6)ccc4F)ccc3n2)CC1` gave a GI50 [1] of 15.9 nM, a TGI [1] of 265 nM and a GI50 [2] of 78.6 nM. It also gave a TGI [2] of 7630 nM, a GI50 [3] of 50.4 nM and a TGI [3] of 2230 nM. The GI50 [4] was 50.5 nM, the TGI [4] was 14500 nM and the GI50 [5] was 112 nM. For the same compound, the TGI [5] was 1790 nM, the GI50 [6] was 33.2 nM and the TGI [6] was 569 nM. The GI50 [7] was 46.2 nM, the TGI [7] was 11000 nM and the GI50 [8] was 23.8 nM. For the same compound, the TGI [8] was 182 nM, the GI50 [9] was 52.4 nM and the TGI [9] was 1820 nM. The GI50 [10] was 29.7 nM and the TGI [10] was 848 nM.
With `Cc1ccc(C2CC(c3cccc(Nc4ccncc4)c3)=NN2c2ccc(Cl)cc2)cc1` (configuration not stated) the GI50 [1] was 1380 nM, the TGI [1] was 2700 nM and the GI50 [2] was 1620 nM. The TGI [2] was 2990 nM, the GI50 [3] was 1850 nM and the TGI [3] was 4120 nM. It also gave a GI50 [4] of 1840 nM, a TGI [4] of 4460 nM and a GI50 [5] of 1480 nM. The TGI [5] was 2880 nM, the GI50 [6] was 1410 nM and the TGI [6] was 2780 nM. The GI50 [7] was 1550 nM, the TGI [7] was 3040 nM and the GI50 [8] was 1920 nM. For the same compound, the TGI [8] was 4000 nM, the GI50 [9] was 1660 nM and the TGI [9] was 3130 nM. The GI50 [10] was 1720 nM and the TGI [10] was 3240 nM.
With `O=C1[C@H](c2ccccc2)C2c3ccccc3CCN12` (some centres not stated) the GI50 [1] was > 100000 nM, the TGI [1] was > 100000 nM and the GI50 [2] was > 100000 nM. For the same compound, the TGI [2] was > 100000 nM, the GI50 [3] was > 100000 nM and the TGI [3] was > 100000 nM. For the same compound, the GI50 [4] was > 100000 nM, the TGI [4] was > 100000 nM and the GI50 [5] was > 100000 nM. For the same compound, the TGI [5] was > 100000 nM, the GI50 [6] was > 100000 nM and the TGI [6] was > 100000 nM. The GI50 [7] was > 100000 nM, the TGI [7] was > 100000 nM and the GI50 [8] was > 100000 nM. The TGI [8] was > 100000 nM, the GI50 [9] was > 100000 nM and the TGI [9] was > 100000 nM. For the same compound, the GI50 [10] was > 100000 nM and the TGI [10] was > 100000 nM.
In the case of `COc1ccc2c(c1)CC[C@@H]1[C@@H]2CC[C@]2(C)c3c(cc(C(=O)c4ccccc4)c4sccc34)C[C@@H]12`, the GI50 [1] is reported as > 100000 nM, the TGI [1] is reported as > 100000 nM and the GI50 [2] is reported as > 100000 nM. For the same compound, the TGI [2] was > 100000 nM, the GI50 [3] was > 100000 nM and the TGI [3] was > 100000 nM. The GI50 [4] was > 100000 nM, the TGI [4] was > 100000 nM and the GI50 [5] was > 100000 nM. The TGI [5] was > 100000 nM, the GI50 [6] was > 100000 nM and the TGI [6] was > 100000 nM. For the same compound, the GI50 [7] was > 100000 nM, the TGI [7] was > 100000 nM and the GI50 [8] was 6730 nM. For the same compound, the TGI [8] was > 100000 nM, the GI50 [9] was > 100000 nM and the TGI [9] was > 100000 nM. The GI50 [10] was > 100000 nM and the TGI [10] was > 100000 nM.
For `O=C(Nc1ncc(Cc2ccc(Cl)cc2)s1)c1ccc2c(c1)OCCO2`, the GI50 [1] was 18.7 nM, the TGI [1] was 80.9 nM and the GI50 [2] was 41.4 nM. The TGI [2] was > 58000 nM, the GI50 [3] was 87.7 nM and the TGI [3] was > 100000 nM. For the same compound, the GI50 [4] was 45.3 nM, the TGI [4] was > 100000 nM and the GI50 [5] was 412 nM. The TGI [5] was > 100000 nM, the GI50 [6] was 176 nM and the TGI [6] was 3150 nM. For the same compound, the GI50 [7] was 40 nM, the TGI [7] was > 100000 nM and the GI50 [8] was 53.7 nM. For the same compound, the GI50 [9] was 155 nM, the TGI [9] was > 100000 nM and the GI50 [10] was 126 nM. The TGI [10] was > 100000 nM.
`COc1ccc2oc(-c3ccc(Cl)cc3)c(N3CCN(C)CC3)c2c1` showed a GI50 [1] of 1530 nM, a TGI [1] of 3150 nM and a GI50 [2] of 1640 nM. For the same compound, the TGI [2] was 3270 nM, the GI50 [3] was 2280 nM and the TGI [3] was 6950 nM. For the same compound, the GI50 [4] was 3380 nM, the TGI [4] was > 100000 nM and the GI50 [5] was 603 nM. It also gave a TGI [5] of 2470 nM, a GI50 [6] of 1640 nM and a TGI [6] of 3270 nM. The GI50 [7] was 1820 nM, the TGI [7] was 3480 nM and the GI50 [8] was 2640 nM. The TGI [8] was > 20000 nM, the GI50 [9] was 2520 nM and the TGI [9] was 10200 nM. It also gave a GI50 [10] of 1050 nM and a TGI [10] of 2690 nM.

Source: PubChem BioAssay (NCI)
